For two compounds, caspase 3/7 activation and AC40 results are on record in PubChem BioAssay AID720615 (Broad Institute, 2013).

A short description of assay [1]: caspase 3/7 activation in U251 cells, mechanism study for HRAS target identification, cell-based, luminescence, several timepoints, dry powder (AID 720615). To be noted: U251 HRAS cells, caspase 3/7 luminescence, apoptosis; at 35 µM (top of the series).
The subject of assay [2] is U251 HRAS cells, caspase 3/7 luminescence, apoptosis. Described as above.

Inconclusive results are not listed. Active and inactive are the calls of the source. How the calls were made is not given here.

On to `CCC(=O)N(c1ccc(OC)c(Cl)c1)C(C(=O)NCCc1ccccc1)c1cccs1` (stereo not given), for which the caspase 3/7 activation in assay [1] is 4.74% (inactive).

Turning to `COc1ccc(N(C(=O)CCl)C(C(=O)NCCc2ccccc2)c2cccs2)cc1Cl` (stereo not given), the AC40 is 5.7 µM in assay [2], 14.7 µM in assay [2] (measured here: timepoint 1 caspase activation), 1.45 µM in assay [2] (measured here: timepoint 2 caspase activation) and 0.948 µM in assay [2] (measured here: timepoint 3 caspase activation).
